Measured values published in PubChem BioAssay AID1963983 (Molecular Pharmacology Branch, DTP, NCI, 2024).

System: 186277-243-T-J2-PDC multi-cell spheroid viability
Assay: Anticancer human tumor 186277-243-T-J2-PDC patient-derived colon adenocarcinoma cell line growth inhibition [PI3K]
Details: for IC50: curve of first compound; for viability, T/C: stronger effect = lower value; active = viability on the fitted dose curve at most 10% of control; inactive = the rest
How it was run: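 Complex 3D spheroids (cancer cells + endothelial HUVEC + mesenchymal stem cells); drug pairs of targeted agent x inavolisib/alpelisib/duvelisib/copanlisib; half-log series from ~Cmax, max 10 microM if Cmax unknown; endpoint viability.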

[1] = second compound 0.0316 µM, first compound 0.0316 µM
[2] = second compound 0.0316 µM, first compound 0.1 µM
[3] = second compound 0.1 µM, first compound 0.0316 µM
[4] = second compound 0.1 µM, first compound 0.1 µM
[5] = second compound 0.316 µM, first compound 0.0316 µM
[6] = second compound 0.316 µM, first compound 0.1 µM
[7] = second compound 1 µM, first compound 0.0316 µM
[8] = second compound 1 µM, first compound 0.1 µM
[9] = second compound 3.16 µM, first compound 0.0316 µM
[10] = second compound 3.16 µM, first compound 0.1 µM
[11] = second compound 10 µM, first compound 0.0316 µM
[12] = second compound 10 µM, first compound 0.1 µM
[13] = second compound 0.0316 µM, first compound 0.316 µM
[14] = second compound 0.0316 µM, first compound 1 µM
[15] = second compound 0.0316 µM, first compound 3.16 µM
[16] = second compound 0.0316 µM, first compound 10 µM
[17] = second compound 0.1 µM, first compound 0.316 µM
[18] = second compound 0.1 µM, first compound 1 µM
[19] = second compound 0.1 µM, first compound 3.16 µM
[20] = second compound 0.1 µM, first compound 10 µM
[21] = second compound 0.316 µM, first compound 0.316 µM
[22] = second compound 0.316 µM, first compound 1 µM
[23] = second compound 0.316 µM, first compound 3.16 µM
[24] = second compound 0.316 µM, first compound 10 µM
[25] = second compound 1 µM, first compound 0.316 µM
[26] = second compound 1 µM, first compound 1 µM
[27] = second compound 1 µM, first compound 3.16 µM
[28] = second compound 1 µM, first compound 10 µM
[29] = second compound 3.16 µM, first compound 0.316 µM
[30] = second compound 3.16 µM, first compound 1 µM
[31] = second compound 3.16 µM, first compound 3.16 µM
[32] = second compound 3.16 µM, first compound 10 µM
[33] = second compound 10 µM, first compound 0.316 µM
[34] = second compound 10 µM, first compound 1 µM
[35] = second compound 10 µM, first compound 3.16 µM
[36] = second compound 10 µM, first compound 10 µM
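Note: spheroids exposed to compounds for seven days before viability reading.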
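Throughout, for viability, T/C: 100% = DMSO vehicle control viability.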

CC(=O)c1c(C)c2cnc(Nc3ccc(N4CCNCC4)cn3)nc2n(C2CCCC2)c1=O + Cc1nc(NC(=O)N2CCCC2C(N)=O)sc1-c1ccnc(C(C)(C)C(F)(F)F)c1
< 0.000316 µM: IC50 (second compound 10 µM)
inactive: viability, T/C (second compound 0.0316 µM, first compound 0.000316 µM) 96.5% | viability, T/C (second compound 0.0316 µM, first compound 0.001 µM) 95% | viability, T/C (second compound 0.0316 µM, first compound 0.00316 µM) 96% | viability, T/C (second compound 0.0316 µM, first compound 0.01 µM) 114% | viability, T/C [1] 123% | viability, T/C [2] 138% | viability, T/C (second compound 0.1 µM, first compound 0.000316 µM) 97.7% | viability, T/C (second compound 0.1 µM, first compound 0.001 µM) 106% | viability, T/C (second compound 0.1 µM, first compound 0.00316 µM) 104% | viability, T/C (second compound 0.1 µM, first compound 0.01 µM) 109% | viability, T/C [3] 136% | viability, T/C [4] 135% | viability, T/C (second compound 0.316 µM, first compound 0.000316 µM) 101% | viability, T/C (second compound 0.316 µM, first compound 0.001 µM) 113% | viability, T/C (second compound 0.316 µM, first compound 0.00316 µM) 109% | viability, T/C (second compound 0.316 µM, first compound 0.01 µM) 101% | viability, T/C [5] 124% | viability, T/C [6] 126% | viability, T/C (second compound 1 µM, first compound 0.000316 µM) 104% | viability, T/C (second compound 1 µM, first compound 0.001 µM) 102% | viability, T/C (second compound 1 µM, first compound 0.00316 µM) 99.5% | viability, T/C (second compound 1 µM, first compound 0.01 µM) 107% | viability, T/C [7] 94.3% | viability, T/C [8] 83.6% | viability, T/C (second compound 3.16 µM, first compound 0.000316 µM) 58.7% | viability, T/C (second compound 3.16 µM, first compound 0.001 µM) 53.6% | viability, T/C (second compound 3.16 µM, first compound 0.00316 µM) 59.2% | viability, T/C (second compound 3.16 µM, first compound 0.01 µM) 53.3% | viability, T/C [9] 46.1% | viability, T/C [10] 37.4% | viability, T/C (second compound 10 µM, first compound 0.000316 µM) 20.9% | viability, T/C (second compound 10 µM, first compound 0.001 µM) 12.4% | viability, T/C (second compound 10 µM, first compound 0.00316 µM) 13.7% | viability, T/C (second compound 10 µM, first compound 0.01 µM) 11.6% | viability, T/C [11] 15.4% | viability, T/C [12] 10.5%
0.019 µM: IC50 (second compound 3.16 µM)
> 0.1 µM: IC50 (second compound 0.0316 µM) | IC50 (second compound 0.1 µM) | IC50 (second compound 0.316 µM) | IC50 (second compound 1 µM)

CC1(C)CCC(CN2CCN(c3ccc(C(=O)NS(=O)(=O)c4ccc(NCC5CCOCC5)c([N+](=O)[O-])c4)c(Oc4cnc5[nH]ccc5c4)c3)CC2)=C(c2ccc(Cl)cc2)C1 + Cc1nc(NC(=O)N2CCCC2C(N)=O)sc1-c1ccnc(C(C)(C)C(F)(F)F)c1
1.5 µM: IC50 (second compound 3.16 µM)
inactive: viability, T/C [1] 101% | viability, T/C [2] 92.7% | viability, T/C [13] 106% | viability, T/C [14] 89.9% | viability, T/C [15] 74.6% | viability, T/C [3] 96.5% | viability, T/C [4] 109% | viability, T/C [17] 95.3% | viability, T/C [18] 101% | viability, T/C [19] 69.8% | viability, T/C [5] 101% | viability, T/C [6] 85.7% | viability, T/C [21] 111% | viability, T/C [22] 104% | viability, T/C [23] 68.2% | viability, T/C [7] 101% | viability, T/C [8] 112% | viability, T/C [25] 96.9% | viability, T/C [26] 89.7% | viability, T/C [27] 61.5% | viability, T/C [9] 54.2% | viability, T/C [10] 61.3% | viability, T/C [29] 58.9% | viability, T/C [30] 51.8% | viability, T/C [31] 43% | viability, T/C [11] 16.6% | viability, T/C [12] 15.8% | viability, T/C [33] 16.6% | viability, T/C [34] 12.8%
4.44 µM: IC50 (second compound 0.1 µM)
4.35 µM: IC50 (second compound 0.316 µM)
4.68 µM: IC50 (second compound 0.0316 µM)
3.93 µM: IC50 (second compound 1 µM)
< 0.0316 µM: IC50 (second compound 10 µM)
active: viability, T/C [16] 3.75% | viability, T/C [20] 2.39% | viability, T/C [24] 2.68% | viability, T/C [28] 0.93% | viability, T/C [32] 0.38% | viability, T/C [35] 13.8% | viability, T/C [36] 0.48%

CC(Cn1ccc(-c2ccc(C#N)c(Cl)c2)n1)NC(=O)c1cc(C(C)O)[nH]n1 (stereo unspecified) + CC(Nc1ncnc2nc[nH]c12)c1cc2cccc(Cl)c2c(=O)n1-c1ccccc1
> 10 µM: IC50 (second compound 0.0316 µM) | IC50 (second compound 0.1 µM) | IC50 (second compound 0.316 µM) | IC50 (second compound 1 µM) | IC50 (second compound 3.16 µM) | IC50 (second compound 10 µM)
inactive: viability, T/C [1] 91% | viability, T/C [2] 109% | viability, T/C [13] 101% | viability, T/C [14] 90.2% | viability, T/C [15] 93.7% | viability, T/C [16] 97.9% | viability, T/C [3] 98.2% | viability, T/C [4] 94.8% | viability, T/C [17] 94.9% | viability, T/C [18] 103% | viability, T/C [19] 101% | viability, T/C [20] 88.3% | viability, T/C [5] 92.3% | viability, T/C [6] 104% | viability, T/C [21] 95.7% | viability, T/C [22] 93.1% | viability, T/C [23] 98.5% | viability, T/C [24] 102% | viability, T/C [7] 92.7% | viability, T/C [8] 108% | viability, T/C [25] 114% | viability, T/C [26] 92.1% | viability, T/C [27] 94.4% | viability, T/C [28] 84.1% | viability, T/C [9] 89.6% | viability, T/C [10] 102% | viability, T/C [29] 116% | viability, T/C [30] 97.3% | viability, T/C [31] 106% | viability, T/C [32] 94.5% | viability, T/C [11] 98% | viability, T/C [12] 83.4% | viability, T/C [33] 84.3% | viability, T/C [34] 98.9% | viability, T/C [35] 90.1% | viability, T/C [36] 78.8%
